Consider nine molecules from PubChem BioAssay (NCI).

Some test systems named below: SK-MEL-2 melanoma; HL-60(TB) leukemia; HCT-15 colon; MDA-MB-435; OVCAR-8 ovarian; M14 melanoma; OVCAR-4 ovarian; TK-10 renal; U251 CNS; EKVX NSCLC.
Common to all, as to test: DTP human tumour cell line panel, 48 h

Molecules are shown by their SMILES.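 Results reflect a 48-hour exposure of cells in 96-well plates to compound at five concentrations. GI50 is the concentration that inhibits growth by half. TGI: total growth inhibition.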

Take `COc1cc2c(cc1Nc1nc(N3CCc4ccccc43)c3cc[nH]c3n1)N(C(=O)CN(C)C)CC2`: the GI50 (as a rule, the concentration giving 50% growth inhibition) in the assay with SK-MEL-2 melanoma was 6.01 µM; with HL-60(TB) leukemia it was 1.18 µM; in the assay with HCT-15 colon, 1.25 µM; with MDA-MB-435, 2.64 µM; in the assay on OVCAR-8 ovarian it was 1.67 µM; with M14 melanoma it was 0.6 µM. Besides, the GI50 with OVCAR-4 ovarian is 2.84 µM; in the assay on TK-10 renal, 1.67 µM; with U251 CNS it was 4.67 µM; with EKVX NSCLC, 5.11 µM. Besides, the TGI (in general, the concentration giving total growth inhibition) in the assay on SK-MEL-2 melanoma worked out at 12.3 µM; in the assay on HL-60(TB) leukemia, 6.82 µM; with HCT-15 colon, 2.81 µM; in the assay on MDA-MB-435 it was 7.91 µM; in the assay on OVCAR-8 ovarian it was 3.84 µM; in the assay on M14 melanoma, 1.51 µM. For the same molecule, the TGI in the assay on OVCAR-4 ovarian worked out at 9.04 µM; with TK-10 renal, 3.37 µM; in the assay with U251 CNS, 9.83 µM; in the assay with EKVX NSCLC, 13.9 µM.
For the molecule `COc1ccc2c(c1)C(=O)c1c-2c(Nc2ccccc2OC)nc2ccccc12`, the GI50 with SK-MEL-2 melanoma, in the assay on HL-60(TB) leukemia, in the assay on HCT-15 colon, in the assay with MDA-MB-435, with OVCAR-8 ovarian and in the assay on M14 melanoma was above 100 µM in each case. In addition, the GI50 in the assay with OVCAR-4 ovarian is 50.5 µM; in the assay with TK-10 renal, above 100 µM; with U251 CNS it was 83.2 µM; in the assay with EKVX NSCLC it was above 100 µM. For the same molecule, the concentration for total growth inhibition (TGI) in the assay on SK-MEL-2 melanoma, with HL-60(TB) leukemia, in the assay on HCT-15 colon, with MDA-MB-435, with OVCAR-8 ovarian and in the assay on M14 melanoma was above 100 µM throughout. In addition, the TGI with OVCAR-4 ovarian, in the assay with TK-10 renal, in the assay on U251 CNS and in the assay on EKVX NSCLC was above 100 µM in each case.
As to `Nc1nc2c(c3cnccc13)C(c1ccc(Cl)c(Cl)c1)Cc1cnccc1-2` (stereo not given), the GI50 in the assay on SK-MEL-2 melanoma was 0.401 µM; with HL-60(TB) leukemia, 0.384 µM; in the assay with HCT-15 colon, 0.409 µM; with MDA-MB-435, 0.241 µM; in the assay on OVCAR-8 ovarian, 2.69 µM; with M14 melanoma, 0.36 µM. Also, the GI50 in the assay with OVCAR-4 ovarian is 4.28 µM; with TK-10 renal, 1.18 µM; in the assay on U251 CNS, 0.375 µM; in the assay on EKVX NSCLC, 0.971 µM. For the same molecule, the TGI turned out to be 1.86 µM with SK-MEL-2 melanoma; 2.34 µM with HL-60(TB) leukemia; 11.1 µM in the assay with HCT-15 colon; 0.646 µM in the assay on MDA-MB-435; 15 µM in the assay with OVCAR-8 ovarian; 2.16 µM in the assay with M14 melanoma. Besides, the TGI with OVCAR-4 ovarian amounted to 25.1 µM; in the assay on TK-10 renal it was 9.48 µM; in the assay with U251 CNS, 2.6 µM; in the assay on EKVX NSCLC it was 17.5 µM.
For the molecule `Cc1c(C(=N)C(C#N)C#N)c(=N)oc2c1ccc1ccccc12`, the GI50 with SK-MEL-2 melanoma was 18 µM; with HL-60(TB) leukemia, 8.76 µM; in the assay with HCT-15 colon, 13.4 µM; in the assay with MDA-MB-435 it was 22.2 µM; with OVCAR-8 ovarian, 23.9 µM; in the assay with M14 melanoma, 23.9 µM. In addition, the GI50 was 19.7 µM in the assay on OVCAR-4 ovarian, 30.5 µM with TK-10 renal, 14.5 µM in the assay on U251 CNS and 4.45 µM with EKVX NSCLC. The TGI was 56.4 µM in the assay on SK-MEL-2 melanoma; 85.8 µM in the assay with HL-60(TB) leukemia; 72.5 µM with HCT-15 colon; above 100 µM with MDA-MB-435; above 100 µM with OVCAR-8 ovarian; above 100 µM with M14 melanoma. In addition, the TGI in the assay with OVCAR-4 ovarian was above 100 µM; in the assay with TK-10 renal, above 100 µM; in the assay with U251 CNS, 37.2 µM; in the assay on EKVX NSCLC, above 100 µM.
With `CN[C@@H](C)C(=O)N[C@H]1CN(S(=O)(=O)c2cccc(S(=O)(=O)N3CC[C@H]4CC[C@@H](C(=O)NC(c5ccccc5)c5ccccc5)N4C(=O)[C@@H](NC(=O)[C@H](C)NC)C3)c2)CC[C@H]2CC[C@@H](C(=O)NC(c3ccccc3)c3ccccc3)N2C1=O`, the GI50 with SK-MEL-2 melanoma was below 0.0223 µM; in the assay with HL-60(TB) leukemia it was 0.0317 µM; in the assay with HCT-15 colon it was above 93.6 µM; in the assay with MDA-MB-435 it was 1.89 µM; in the assay with OVCAR-8 ovarian, 5.64 µM; with M14 melanoma, 34.3 µM. Further, the GI50 in the assay with OVCAR-4 ovarian was 0.0187 µM; in the assay with TK-10 renal it was 55.9 µM; in the assay with U251 CNS, 24.4 µM; with EKVX NSCLC, 25.2 µM. Further, the TGI in the assay with SK-MEL-2 melanoma was 10.9 µM; in the assay on HL-60(TB) leukemia it was 1.69 µM; with HCT-15 colon, above 100 µM; in the assay with MDA-MB-435, 21.6 µM; in the assay on OVCAR-8 ovarian, 26.8 µM; in the assay with M14 melanoma it was above 100 µM. The TGI in the assay with OVCAR-4 ovarian was 0.128 µM; in the assay with TK-10 renal, above 100 µM; in the assay with U251 CNS, 63.8 µM; in the assay on EKVX NSCLC it was above 74 µM.
For the molecule `CC(Br)C(=O)NC(CO)C(=O)O` (stereo not given), the concentration for total growth inhibition (TGI) with SK-MEL-2 melanoma, with HL-60(TB) leukemia, in the assay with HCT-15 colon, with MDA-MB-435, with OVCAR-8 ovarian and with M14 melanoma was above 100 µM throughout. The TGI in the assay on OVCAR-4 ovarian, in the assay on TK-10 renal, with U251 CNS and with EKVX NSCLC was above 100 µM throughout.
On to `CCNc1nc(O)c(/C=C2\C=Nc3ncccc32)s1`, for which the GI50 in the assay with SK-MEL-2 melanoma is 3.04 µM; in the assay on HL-60(TB) leukemia, 2.53 µM; in the assay on HCT-15 colon, 5.18 µM; in the assay on MDA-MB-435, 3.49 µM; in the assay on OVCAR-8 ovarian, 3.27 µM; in the assay with M14 melanoma, 4.45 µM. In addition, the GI50 with OVCAR-4 ovarian was 3.08 µM; in the assay with TK-10 renal, 2.78 µM; in the assay with U251 CNS, 2.6 µM; with EKVX NSCLC it was 16.6 µM. Besides, the total growth inhibition concentration (TGI) with SK-MEL-2 melanoma is 8.93 µM; in the assay on HL-60(TB) leukemia, 10.2 µM; in the assay on HCT-15 colon, above 100 µM; in the assay on MDA-MB-435, 14.9 µM; in the assay on OVCAR-8 ovarian it was above 100 µM; in the assay with M14 melanoma, 26.9 µM. The TGI with OVCAR-4 ovarian is above 100 µM; in the assay with TK-10 renal, 95 µM; with U251 CNS, 8.24 µM; with EKVX NSCLC, above 100 µM.
Take `CCN=c1sc2c(n1NC(=O)c1cc3ccc1CCc1ccc(cc1)CC3)C(=O)c1ccccc1C2=O`: the GI50 was 0.726 µM in the assay on SK-MEL-2 melanoma; 0.815 µM in the assay on HL-60(TB) leukemia; 0.569 µM with HCT-15 colon; 0.601 µM with MDA-MB-435; 0.594 µM with OVCAR-8 ovarian; 0.577 µM in the assay on M14 melanoma. In addition, the GI50 is 0.469 µM with OVCAR-4 ovarian, 9.54 µM with TK-10 renal, 0.498 µM with U251 CNS and 0.632 µM in the assay with EKVX NSCLC. In addition, the TGI in the assay on SK-MEL-2 melanoma was determined as 1.56 µM; with HL-60(TB) leukemia, 2.3 µM; in the assay on HCT-15 colon, 1.21 µM; in the assay on MDA-MB-435, 1.09 µM; in the assay with OVCAR-8 ovarian, 1.35 µM; in the assay with M14 melanoma, 1.11 µM. Also, the TGI in the assay with OVCAR-4 ovarian was 0.906 µM; in the assay with TK-10 renal, 16.5 µM; in the assay on U251 CNS, 1.04 µM; in the assay on EKVX NSCLC, 1.66 µM.
Regarding `CCN1C(=S)N(CC)C2C1NC(=S)N2/N=C/C=C/c1ccccc1OC` (stereo not given), the GI50 is 0.615 µM in the assay with SK-MEL-2 melanoma; 0.229 µM in the assay on HL-60(TB) leukemia; 0.267 µM in the assay with HCT-15 colon; 0.0368 µM with MDA-MB-435; 0.538 µM in the assay on OVCAR-8 ovarian; 0.179 µM in the assay on M14 melanoma. Moreover, the GI50 in the assay with OVCAR-4 ovarian is 1.1 µM; with TK-10 renal it was 7.69 µM; in the assay on U251 CNS, 0.354 µM; in the assay with EKVX NSCLC it was 0.4 µM. Further, the TGI with SK-MEL-2 melanoma is 56.7 µM; with HL-60(TB) leukemia, 0.597 µM; in the assay with HCT-15 colon, above 100 µM; in the assay with MDA-MB-435, 0.177 µM; in the assay on OVCAR-8 ovarian, above 41.2 µM; with M14 melanoma, 0.575 µM. Moreover, the total growth inhibition concentration (TGI) with OVCAR-4 ovarian was above 100 µM; in the assay with TK-10 renal, 98.9 µM; in the assay with U251 CNS it was 24.4 µM; in the assay with EKVX NSCLC it was above 100 µM.
